Assay results as given in patent US6982348B2, “Aminoethanol derivatives” (Takeda Pharmaceutical Company Limited, priority 2001, dated 2006).

Row | SMILES | melting point [°C]
1 | O=C(Cc1cccc2ccccc12)N[C@H](Cc1ccc(C(F)(F)F)cc1)[C@@H](O)c1ccc(F)cc1 (racemic) [Example 82, N-((1RS,2SR)-2-(4-fluorophenyl)-2-hydroxy-1-((4-(trifluoromethyl)phenyl)methyl)ethyl)-2-(1-naphthalenyl)acetamide] | 186 to 187
2 | CCOc1ccc2ccccc2c1C(=O)N[C@H](Cc1ccc(C(F)(F)F)cc1)[C@@H](O)c1ccc(F)cc1 (racemic) [Example 83, 2-(ethyloxy)-N-((1RS,2SR)-2-(4-fluorophenyl)-2-hydroxy-1-((4-(trifluoromethyl)phenyl)methyl)ethyl)-1-naphthalenecarboxamide] | 157 to 158
3 | O=C(N[C@H](Cc1ccc(C(F)(F)F)cc1)[C@@H](O)c1ccc(F)cc1)c1c2ccccc2cc2ccccc12 (racemic) [Example 84, N-((1RS,2SR)-2-(4-fluorophenyl)-2-hydroxy-1-((4-(trifluoromethyl)phenyl)methyl)ethyl)-9-anthracenecarboxamide] | 251 to 252
4 | O=C(N[C@H](Cc1ccc(C(F)(F)F)cc1)[C@@H](O)c1ccc(F)cc1)c1cc(C(F)(F)F)cc(C(F)(F)F)c1 (racemic) [Example 86, N-((1RS,2SR)-2-(4-fluorophenyl)-2-hydroxy-1-((4-(trifluoromethyl)phenyl)methyl)ethyl)-3,5-bis(trifluoromethyl)benzamide] | 150 to 151
5 | O=C(N[C@H](Cc1ccc(C(F)(F)F)cc1)[C@@H](O)c1ccc(F)cc1)c1c(CSc2ccccc2)ccc2ccccc12 (racemic) [Example 97, N-[(1RS,2SR)-2-(4-fluorophenyl)-2-hydroxy-1-[4-(trifluoromethyl)benzyl]ethyl]-2-[(phenylthio)methyl]naphthalene-1-carboxamide] | 102 to 104
6 | Cn1cc(C(=O)N[C@H](Cc2ccc(C(F)(F)F)cc2)[C@@H](O)c2ccc(F)cc2)c2ccccc21 (racemic) [Example 98, N-[(1RS,2SR)-2-(4-fluorophenyl)-2-hydroxy-1-[4-(trifluoromethyl)benzyl]ethyl]-1-methyl-1H-indole-3-carboxamide] | 129 to 131
7 | O=C(CCCCc1ccccc1)N[C@H](Cc1ccc(C(F)(F)F)cc1)[C@@H](O)c1ccc(F)cc1 (racemic) [Example 99, N-((1RS,2SR)-2-(4-fluorophenyl)-2-hydroxy-1-((4-(trifluoromethyl)phenyl)methyl)ethyl)-5-phenylpentanamide] | 152 to 153
8 | O=C(N[C@H](Cc1ccc(C(F)(F)F)cc1)[C@@H](O)c1ccc(F)cc1)c1cc([N+](=O)[O-])cc2ccccc12 (racemic) [Example 102, N-[(1RS,2SR)-2-(4-fluorophenyl)-2-hydroxy-1-[4-(trifluoromethyl)benzyl]ethyl]-3-nitronaphthalene-1-carboxamide] | 231 to 232
9 | O=C(CC(F)(F)F)N[C@H](Cc1ccc(C(F)(F)F)cc1)[C@@H](O)c1ccc(F)cc1 (racemic) [Example 109, N-[(1RS,2SR)-2-(4-fluorophenyl)-2-hydroxy-1-[4-(trifluoromethyl)benzyl]ethyl]-3,3,3-trifluoropropionamide] | 179 to 180
10 | O=C(N[C@H](Cc1ccc(C(F)(F)F)cc1)[C@@H](O)c1ccc(F)cc1)C(c1ccccc1)C1CCCC1 (mixture of isomers) [Example 110, 2-cyclopentyl-N-[(1RS,2SR)-2-(4-fluorophenyl)-2-hydroxy-1-[4-(trifluoromethyl)benzyl]ethyl]-2-phenylacetamide] | 201 to 202
11 | O=C(N[C@H](Cc1ccc(C(F)(F)F)cc1)[C@@H](O)c1ccc(F)cc1)c1cc([N+](=O)[O-])cc2c1CCCC2 (racemic) [Example 111, N-[(1RS,2SR)-2-(4-fluorophenyl)-2-hydroxy-1-[4-(trifluoromethyl)benzyl]ethyl]-3-nitro-5,6,7,8-tetrahydronaphthalene-1-carboxamide] | 216 to 217
12 | CC(C)(C)C(Cc1ccccc1)C(=O)N[C@H](Cc1ccc(C(F)(F)F)cc1)[C@@H](O)c1ccc(F)cc1 (mixture of isomers) [Example 112, 2-benzyl-N-[(1RS,2SR)-2-(4-fluorophenyl)-2-hydroxy-1-[4-(trifluoromethyl)benzyl]ethyl]-3,3-dimethylbutyramide] | 175 to 176

Other lines, results leading:

Row | melting point [°C] | SMILES
13 | 171 to 172 | CCCCc1ccc(C(=O)N[C@H](Cc2ccc(C(F)(F)F)cc2)[C@@H](O)c2ccc(F)cc2)cc1 (racemic) [Example 79, 4-butyl-N-((1RS,2SR)-2-(4-fluorophenyl)-2-hydroxy-1-((4-(trifluoromethyl)phenyl)methyl)ethyl)benzamide]
14 | 83 to 84 | O=C(N[C@H](Cc1ccc(C(F)(F)F)cc1)[C@@H](O)c1ccc(F)cc1)c1cccc2cccnc12 (racemic) [Example 80, N-((1RS,2SR)-2-(4-fluorophenyl)-2-hydroxy-1-((4-(trifluoromethyl)phenyl)methyl)ethyl)-8-quinolinecarboxamide]
15 | 228 to 229 | O=C(N[C@H](Cc1ccc(C(F)(F)F)cc1)[C@@H](O)c1ccc(F)cc1)c1ccc(C(F)(F)F)cc1 (racemic) [Example 81, N-((1RS,2SR)-2-(4-fluorophenyl)-2-hydroxy-1-((4-(trifluoromethyl)phenyl)methyl)ethyl)-4-(trifluoromethyl)benzamide]
16 | 185 to 186 | O=C(N[C@H](Cc1ccc(C(F)(F)F)cc1)[C@@H](O)c1ccc(F)cc1)c1cccc2c1C(=O)c1ccccc1-2 (racemic) [Example 85, N-((1RS,2SR)-2-(4-fluorophenyl)-2-hydroxy-1-((4-(trifluoromethyl)phenyl)methyl)ethyl)-9-oxo-9H-fluorene-1-carboxamide]
17 | 191 to 192 | O=C(N[C@H](Cc1ccc(C(F)(F)F)cc1)[C@@H](O)c1ccc(F)cc1)c1cccc2cccc(Br)c12 (racemic) [Example 87, 8-bromo-N-((1RS,2SR)-2-(4-fluorophenyl)-2-hydroxy-1-((4-(trifluoromethyl)phenyl)methyl)ethyl)-1-naphthalenecarboxamide]
18 | 156 to 157 | O=C(N[C@H](Cc1ccc(C(F)(F)F)cc1)[C@@H](O)c1ccc(F)cc1)c1ccc(C(=O)c2ccc(F)cc2)cc1 (racemic) [Example 88, 4-(4-fluorobenzoyl)-N-[(1RS,2SR)-2-(4-fluorophenyl)-2-hydroxy-1-[4-(trifluoromethyl)benzyl]ethyl]benzenecarboxamide]
19 | 193 to 194 | O=C(N[C@H](Cc1ccc(C(F)(F)F)cc1)[C@@H](O)c1ccc(F)cc1)c1ccc(/C=C\c2ccc(Cl)cc2)cc1 (racemic) [Example 89, 4-[(Z)-2-(4-chlorophenyl)ethenyl]-N-[(1RS,2SR)-2-(4-fluorophenyl)-2-hydroxy-1-[4-(trifluoromethyl)benzyl]ethyl]benzenecarboxamide]
20 | 188 to 189 | O=C(N[C@H](Cc1ccc(C(F)(F)F)cc1)[C@@H](O)c1ccc(F)cc1)c1ccc(Oc2ccc(Cl)cc2)cc1 (racemic) [Example 90, 4-(4-chlorophenoxy)-N-[(1RS,2SR)-2-(4-fluorophenyl)-2-hydroxy-1-[4-(trifluoromethyl)benzyl]ethyl]benzenecarboxamide]
21 | 204 to 206 | COCc1oc(-c2ccccc2)c(C(=O)N[C@H](Cc2ccc(C(F)(F)F)cc2)[C@@H](O)c2ccc(F)cc2)c1-c1ccc(F)cc1 (racemic) [Example 91, 4-(4-fluorophenyl)-N-[(1RS,2SR)-2-(4-fluorophenyl)-2-hydroxy-1-[4-(trifluoromethyl)benzyl]ethyl]-5-[(methoxy)methyl]-2-phenylfuran-3-carboxamide]
22 | 211 to 212 | O=C(N[C@H](Cc1ccc(C(F)(F)F)cc1)[C@@H](O)c1ccc(F)cc1)c1ccc(CCc2ccc(Cl)cc2)cc1 (racemic) [Example 92, 4-[2-(4-chlorophenyl)ethyl]-N-[(1RS,2SR)-2-(4-fluorophenyl)-2-hydroxy-1-[4-(trifluoromethyl)benzyl]ethyl]benzenecarboxamide]
23 | 162 to 166 | O=C(N[C@H](Cc1ccc(C(F)(F)F)cc1)[C@@H](O)c1ccc(F)cc1)c1ccc([C@@H]2O[C@@H]2c2ccc(Cl)cc2)cc1 (racemic) [Example 93, 4-[cis-3-(4-chlorophenyl)oxiran-2-yl]-N-[(1RS,2SR)-2-(4-fluorophenyl)-2-hydroxy-1-[4-(trifluoromethyl)benzyl]ethyl]benzenecarboxamide]
24 | 153 to 154 | O=C(N[C@H](Cc1ccc(C(F)(F)F)cc1)[C@@H](O)c1ccc(F)cc1)c1ccc(/C=C\c2ccccc2Cl)cc1 (racemic) [Example 96, 4-[(Z)-2-(2-chlorophenyl)ethenyl]-N-[(1RS,2SR)-2-(4-fluorophenyl)-2-hydroxy-1-[4-(trifluoromethyl)benzyl]ethyl]benzenecarboxamide]
25 | 227 to 228 | COc1ccc(C(=O)N[C@H](Cc2ccc(C(F)(F)F)cc2)[C@@H](O)c2ccc(F)cc2)c2ccccc12 (racemic) [Example 101, N-[(1RS,2SR)-2-(4-fluorophenyl)-2-hydroxy-1-[4-(trifluoromethyl)benzyl]ethyl]-4-methoxynaphthalene-1-carboxamide]
26 | 255 to 256 | NC(=O)c1ccc(C(=O)N[C@H](Cc2ccc(C(F)(F)F)cc2)[C@@H](O)c2ccc(F)cc2)c2ccccc12 (racemic) [Example 104, N1-[(1RS,2SR)-2-(4-fluorophenyl)-2-hydroxy-1-[4-(trifluoromethyl)benzyl]ethyl]naphthalene-1,4-dicarboxamide]
27 | 202 to 203 | O=C(N[C@H](Cc1ccc(C(F)(F)F)cc1)[C@@H](O)c1ccc(F)cc1)c1ccc(CO)c2ccccc12 (racemic) [Example 105, N-((1RS,2SR)-2-(4-fluorophenyl)-2-hydroxy-1-((4-(trifluoromethyl)phenyl)methyl)ethyl)-4-(hydroxymethyl)-1-naphthalenecarboxamide]
28 | 144 to 145 | O=C(N[C@H](Cc1ccc(C(F)(F)F)cc1)[C@@H](O)c1ccc(F)cc1)c1cccc(Oc2ccccc2)c1 (racemic) [Example 107, N-((1RS,2SR)-2-(4-fluorophenyl)-2-hydroxy-1-((4-(trifluoromethyl)phenyl)methyl)ethyl)-3-phenoxybenzamide]
